Laboratory results as given in patent US20090227669A1, “Compositions and Methods for Perioperative Bladder Instillation” (THE UNIVERSITY OF TOLEDO, priority 2004, published 2009).

Columns and labels:
[1] = orally administered; along with at least five metabolites; cited from earlier work
AY-27 cells [2] = experiment: DNA ladder assay in AY-27 cells; format: cell-based, rat
[3] = test system: AY-27 rat transitional cancer cell line; experiment: AY-27 cell survival/growth under EGCG treatment; format: cell-based
AY-27 cells [4] = experiment: Intravesical EGCG instillation after AY-27 tumor cell implantation in cauterized rat bladder; format: in vivo, Fisher 344 rats
Experimental: Single Polyphenol (EGCG): Fisher 344 rats were maintained under guidelines of the Medical College of Ohio Institutional Animal Care and Use Committee. A combination ketamine (80 mg/kg)/xylazine (12 mg/kg) intraperitoneal injection was used to anesthetize the rats prior to surgery. The abdomen was shaved and prepped with an iodine solution under sterile conditions. Oxytetracycline 20 mg was injected subcutaneously for antibacterial prophylaxis. Under 4× microscopic magnification, a 1.5 cm midline incision exposed the bladder. A sterile, 22 gauge Angiocath cannula was then advanced transurethrally. A blunt-tipped 24 gauge copper wire was then advanced through the catheter and a […] current was used to cauterize the bladder wall creating a small, white puckered area. The skin and muscular layers of the abdominal wall were closed with a running 4-0 silk suture.
AY-27 cells suspended in 0.25 cc of serum free RPMI-1640 medium were instilled transurethrally into 40 rats. The catheters were then capped and the tumor cells were allowed to dwell inside the bladder for 30 minutes. After tumor cell instillation, twelve rats (Group I) had two, separately hourly instillations of culture medium. Twenty-eight rats (Group II) were treated with a freshly prepared solution of 0.25 cc, 200 microM EGCG solution in RPLMI-1640 medium for 2 separate dwell times of one hour. […]

SMILES: O=C(O[C@@H]1Cc2c(O)cc(O)cc2O[C@@H]1c1cc(O)c(O)c(O)c1)c1cc(O)c(O)c(O)c1 [EGCG, epigallocatechin-gallate]
- fraction of total administered EGCG found in urine [1]: 0.03-0.59%
- banding pattern on DNA ladder assay (apoptosis) (AY-27 cells [2]): weak banding pattern
- cellular growth of AY-27 cell line [3]: inhibits cellular growth
- cellular survival ([3]; after two hours of treatment at all concentrations of EGCG): No cellular survival
- tumor growth rate (AY-27 cells [4]; 200 microM EGCG, 0.25 cc, 2 separate dwell times of one hour, euthanized three weeks later, n=28, controls 100%): 36%
- incidence of bladder tumor implantation (AY-27 cells [4]; intravesical EGCG at 200 microM for 2 hours): significantly reduce
